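Where inhibition never reached the appropriate level, the endpoint shown equals the highest concentration tested. Otherwise, values were interpolated linearly from a five-concentration, 48-hour dose response in 96-well plates. Here, GI50 denotes the concentration required for 50% inhibition of growth.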 Active and inactive are the calls of the source. Cut-off read from the data, not from the text of the source: active = GI50 up to about 1.1 µM and inactive = higher.
Assays:
Experiment in all cases: NCI anticancer screen, dose series, 48 h
ACHN = system: ACHN
DLD-1 = system: DLD-1
DMS-114 = system: DMS-114
EKVX = system: EKVX
HCC 2998 = system: HCC 2998
HCT-116 = system: HCT-116
HCT-15 = system: HCT-15
HOP-62 = system: HOP-62
HT-29 = system: HT-29
KM-20L2 = system: KM-20L2
KM12 = system: KM12
LOX IMVI = system: LOX IMVI
LXFL 529 = system: LXFL 529
M14 = system: M14
M19-MEL = system: M19-MEL
Malme-3M = system: Malme-3M
NCI-H226 = system: NCI-H226
NCI-H23 = system: NCI-H23
NCI-H460 = system: NCI-H460
OVCAR-3 = system: OVCAR-3
OVCAR-4 = system: OVCAR-4
OVCAR-5 = system: OVCAR-5
RXF 393 = system: RXF 393
SF-268 = system: SF-268
SF-539 = system: SF-539
SK-MEL-28 = system: SK-MEL-28
SK-MEL-2 = system: SK-MEL-2
SK-OV-3 = system: SK-OV-3
SN12C = system: SN12C
SNB-19 = system: SNB-19
SNB-75 = system: SNB-75
SNB-78 = system: SNB-78
TK-10 = system: TK-10
U-251 = system: U-251
UACC-257 = system: UACC-257
UACC-62 = system: UACC-62
UO-31 = system: UO-31
XF498 = system: XF498
786-0 = system: 786-0
A498 = system: A498
A549 = system: A549
CAKI-1 = system: CAKI-1
CCRF-CEM = system: CCRF-CEM
COLO 205 = system: COLO 205
DMS-273 = system: DMS-273
HL-60 = system: HL-60
IGROV-1 = system: IGROV-1
K562 = system: K562
MOLT-4 = system: MOLT-4
NCI-H522 = system: NCI-H522
OVCAR-8 = system: OVCAR-8
RPMI-8226 = system: RPMI-8226
SF-295 = system: SF-295
SK-MEL-5 = system: SK-MEL-5
SW-620 = system: SW-620
HOP-18 = system: HOP-18
HOP-92 = system: HOP-92
SR = system: SR

## CC(C)C(C)C(C)(C)P(C)(C)=O (stereo not drawn)
ACHN
  GI50: > 100 µM (inactive)
DLD-1
  GI50: > 100 µM (inactive)
DMS-114
  GI50: > 100 µM (inactive)
EKVX
  GI50: > 100 µM (inactive)
HCC 2998
  GI50: > 100 µM (inactive)
HCT-116
  GI50: > 100 µM (inactive)
HCT-15
  GI50: > 100 µM
HOP-62
  GI50: > 100 µM (inactive)
HT-29
  GI50: > 100 µM (inactive)
KM-20L2
  GI50: > 100 µM (inactive)
KM12
  GI50: > 100 µM (inactive)
LOX IMVI
  GI50: > 100 µM (inactive)
LXFL 529
  GI50: > 100 µM (inactive)
M14
  GI50: > 100 µM (inactive)
M19-MEL
  GI50: > 100 µM (inactive)
Malme-3M
  GI50: > 100 µM (inactive)
NCI-H226
  GI50: > 100 µM (inactive)
NCI-H23
  GI50: > 100 µM (inactive)
NCI-H460
  GI50: > 100 µM (inactive)
OVCAR-3
  GI50: > 100 µM (inactive)
OVCAR-4
  GI50: > 100 µM (inactive)
OVCAR-5
  GI50: > 100 µM (inactive)
RXF 393
  GI50: > 100 µM (inactive)
SF-268
  GI50: > 100 µM (inactive)
SF-539
  GI50: > 100 µM (inactive)
SK-MEL-28
  GI50: > 100 µM (inactive)
SK-MEL-2
  GI50: > 100 µM (inactive)
SK-OV-3
  GI50: > 100 µM (inactive)
SN12C
  GI50: > 100 µM (inactive)
SNB-19
  GI50: > 100 µM (inactive)
SNB-75
  GI50: > 100 µM (inactive)
SNB-78
  GI50: > 100 µM (inactive)
TK-10
  GI50: > 100 µM (inactive)
U-251
  GI50: > 100 µM (inactive)
UACC-257
  GI50: > 100 µM (inactive)
UACC-62
  GI50: > 100 µM (inactive)
UO-31
  GI50: > 100 µM (inactive)
XF498
  GI50: > 100 µM (inactive)

## N#CC1CCCCC1NC1(C#N)CCCCC1 (stereo not drawn)
786-0
  GI50: > 100 µM (inactive)
A498
  GI50: > 100 µM (inactive)
A549
  GI50: > 100 µM (inactive)
CAKI-1
  GI50: > 100 µM (inactive)
CCRF-CEM
  GI50: > 100 µM (inactive)
COLO 205
  GI50: > 100 µM (inactive)
DLD-1
  GI50: > 100 µM (inactive)
DMS-114
  GI50: > 100 µM (inactive)
DMS-273
  GI50: > 100 µM (inactive)
EKVX
  GI50: > 100 µM (inactive)
HCC 2998
  GI50: > 100 µM (inactive)
HCT-15
  GI50: > 100 µM
HL-60
  GI50: > 100 µM (inactive)
HOP-62
  GI50: > 100 µM (inactive)
HT-29
  GI50: > 100 µM (inactive)
IGROV-1
  GI50: > 100 µM (inactive)
K562
  GI50: > 100 µM (inactive)
KM-20L2
  GI50: > 100 µM (inactive)
KM12
  GI50: > 100 µM (inactive)
LOX IMVI
  GI50: > 100 µM (inactive)
LXFL 529
  GI50: > 100 µM (inactive)
M14
  GI50: > 100 µM (inactive)
MOLT-4
  GI50: > 100 µM (inactive)
Malme-3M
  GI50: > 100 µM (inactive)
NCI-H226
  GI50: > 100 µM (inactive)
NCI-H23
  GI50: > 100 µM (inactive)
NCI-H522
  GI50: > 100 µM (inactive)
OVCAR-3
  GI50: > 100 µM (inactive)
OVCAR-8
  GI50: > 100 µM (inactive)
RPMI-8226
  GI50: > 100 µM (inactive)
RXF 393
  GI50: > 100 µM (inactive)
SF-268
  GI50: > 100 µM (inactive)
SF-295
  GI50: > 100 µM (inactive)
SF-539
  GI50: > 100 µM (inactive)
SK-MEL-28
  GI50: > 100 µM (inactive)
SK-MEL-2
  GI50: > 100 µM (inactive)
SK-MEL-5
  GI50: > 100 µM (inactive)
SK-OV-3
  GI50: > 100 µM (inactive)
SN12C
  GI50: > 100 µM (inactive)
SNB-19
  GI50: > 100 µM (inactive)
SNB-75
  GI50: > 100 µM (inactive)
SNB-78
  GI50: > 100 µM (inactive)
SW-620
  GI50: > 100 µM (inactive)
TK-10
  GI50: > 100 µM (inactive)
U-251
  GI50: > 100 µM (inactive)
UACC-257
  GI50: > 100 µM (inactive)
UACC-62
  GI50: > 100 µM (inactive)
UO-31
  GI50: > 100 µM (inactive)
XF498
  GI50: > 100 µM (inactive)

## CCOC(=O)/C(C#N)=C1/SC(C(=O)N/N=C/c2ccc(OC)cc2)=C(N)N1c1ccccc1
A549
  GI50: > 100 µM (inactive)
ACHN
  GI50: 28.9 µM (inactive)
CCRF-CEM
  GI50: > 100 µM (inactive)
COLO 205
  GI50: > 100 µM (inactive)
DLD-1
  GI50: > 100 µM (inactive)
HCC 2998
  GI50: > 100 µM (inactive)
HCT-116
  GI50: > 100 µM (inactive)
HL-60
  GI50: > 100 µM (inactive)
HOP-18
  GI50: > 100 µM (inactive)
HOP-62
  GI50: 71 µM (inactive)
HOP-92
  GI50: 3.82 µM (inactive)
HT-29
  GI50: 31.3 µM (inactive)
IGROV-1
  GI50: 3.1 µM (inactive)
K562
  GI50: 0.205 µM (active)
KM12
  GI50: > 100 µM (inactive)
LXFL 529
  GI50: 60.4 µM (inactive)
M19-MEL
  GI50: > 100 µM (inactive)
MOLT-4
  GI50: > 100 µM (inactive)
NCI-H226
  GI50: > 100 µM (inactive)
NCI-H23
  GI50: > 100 µM (inactive)
NCI-H460
  GI50: 72.8 µM (inactive)
NCI-H522
  GI50: > 100 µM (inactive)
OVCAR-3
  GI50: > 100 µM (inactive)
OVCAR-5
  GI50: > 100 µM (inactive)
OVCAR-8
  GI50: > 100 µM (inactive)
RPMI-8226
  GI50: 1.71 µM (inactive)
SF-268
  GI50: 97.5 µM (inactive)
SF-295
  GI50: 16.1 µM (inactive)
SF-539
  GI50: 1.16 µM (inactive)
SK-MEL-28
  GI50: 35.6 µM (inactive)
SK-MEL-5
  GI50: 39.4 µM (inactive)
SK-OV-3
  GI50: 32.4 µM (inactive)
SNB-19
  GI50: > 100 µM (inactive)
SNB-75
  GI50: 0.318 µM (active)
SR
  GI50: > 100 µM (inactive)
SW-620
  GI50: > 100 µM (inactive)
TK-10
  GI50: > 100 µM (inactive)
U-251
  GI50: > 100 µM (inactive)
UACC-257
  GI50: 59.4 µM (inactive)
UACC-62
  GI50: > 100 µM (inactive)
UO-31
  GI50: > 100 µM (inactive)
